Experiments:
Assay in all cases: relative viability (nuclei count vs DMSO), 5 days (fraction); higher = more cells survive
[1] = compound: C=CCNC1=C2C[C@@H](C)C[C@H](OC)[C@H](O)[C@@H](C)/C=C(\C)[C@H](OC(N)=O)[C@@H](OC)/C=C\C=C(/C)C(=O)NC(=CC1=O)C2=O [17-AAG] + CC(C)C[C@H](NC(=O)[C@H](Cc1ccccc1)NC(=O)c1cnccn1)B(O)O [Bortezomib] (partner 0.002 µM)
Method in brief: (§1)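 Lung cancer cell lines were pin-tool dosed in 1536-well plates on the day after seeding, with either a lone drug or a fixed anchor-drug dose plus five library-drug doses (not always all listed) in √10 steps. Nuclei were counted on 4× images after 5 days. Relative viability is the ratio of treated-well to vehicle-well nuclei counts, with each value a median of duplicate plates.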

[2] = compound: C=CCNC1=C2C[C@@H](C)C[C@H](OC)[C@H](O)[C@@H](C)/C=C(\C)[C@H](OC(N)=O)[C@@H](OC)/C=C\C=C(/C)C(=O)NC(=CC1=O)C2=O [17-AAG] + NC(=O)Nc1cc(-c2cccc(F)c2)sc1C(=O)N[C@H]1CCCNC1 [AZD7762] (partner 0.2 µM)
Method in brief: as §1

[3] = compound: C=CCNC1=C2C[C@@H](C)C[C@H](OC)[C@H](O)[C@@H](C)/C=C(\C)[C@H](OC(N)=O)[C@@H](OC)/C=C\C=C(/C)C(=O)NC(=CC1=O)C2=O [17-AAG] + CS(=O)(=O)CCNCc1ccc(-c2ccc3ncnc(Nc4ccc(OCc5cccc(F)c5)c(Cl)c4)c3c2)o1 [Lapatinib] (partner 2 µM)
Method in brief: as §1

[4] = compound: C=CCNC1=C2C[C@@H](C)C[C@H](OC)[C@H](O)[C@@H](C)/C=C(\C)[C@H](OC(N)=O)[C@@H](OC)/C=C\C=C(/C)C(=O)NC(=CC1=O)C2=O [17-AAG] + Nc1ncn([C@H]2C[C@H](O)[C@@H](CO)O2)c(=O)n1 [Decitabine] (partner 2 µM)
Method in brief: as §1

Row | Cell Line | relative viability ([1]; first compound 0.00128 µM) | relative viability ([1]; first compound 0.004048 µM) | relative viability ([1]; first compound 0.0128 µM) | relative viability ([1]; first compound 0.04048 µM) | relative viability ([1]; first compound 0.128 µM) | relative viability ([2]; first compound 0.00128 µM) | relative viability ([2]; first compound 0.004048 µM) | relative viability ([2]; first compound 0.0128 µM) | relative viability ([2]; first compound 0.04048 µM) | relative viability ([2]; first compound 0.128 µM) | relative viability ([3]; first compound 0.00128 µM) | relative viability ([3]; first compound 0.004048 µM) | relative viability ([3]; first compound 0.0128 µM) | relative viability ([3]; first compound 0.04048 µM) | relative viability ([3]; first compound 0.128 µM) | relative viability ([4]; first compound 0.00128 µM) | relative viability ([4]; first compound 0.004048 µM) | relative viability ([4]; first compound 0.0128 µM) | relative viability ([4]; first compound 0.04048 µM) | relative viability ([4]; first compound 0.128 µM)
1 | NCI-H1975 | 0.445 | 0.34 | 0.149 | 0.145 | 0.119 | 0.753 | 0.656 | 0.331 | 0.203 | 0.216 | 0.872 | 0.739 | 0.256 | 0.166 | 0.11 | 0.378 | 0.396 | 0.266 | 0.175 | 0.14
2 | NCI-H1993 | 1.04 | 1.25 | 0.609 | 0.454 | 0.369 | 0.936 | 0.644 | 0.325 | 0.339 | 0.248 | 0.767 | 0.76 | 0.627 | 0.45 | 0.451 | 0.609 | 0.606 | 0.544 | 0.408 | 0.348
3 | NCI-H2085 | 1.08 | 1.02 | 1.11 | 1.04 | 0.714 | 0.983 | 1.02 | 1 | 1 | 0.551 | 0.784 | 0.802 | 0.812 | 0.875 | 0.527 | 0.498 | 0.512 | 0.588 | 0.57 | 0.495
4 | NCI-H2087 | 0.85 | 0.674 | 0.377 | 0.215 | 0.137 | 1.28 | 1.3 | 0.471 | 0.154 | 0.116 | 0.823 | 0.808 | 0.477 | 0.238 | 0.135 | 0.248 | 0.193 | 0.104 | 0.113 | 0.114
5 | NCI-H2126 | 1.09 | 1.1 | 0.993 | 1.06 | 0.255 | 0.977 | 0.975 | 0.885 | 0.265 | 0.231 | 0.731 | 0.784 | 0.775 | 0.53 | 0.276 | 0.556 | 0.631 | 0.616 | 0.622 | 0.456
6 | NCI-H2347 |  | 0.995 | 0.871 | 0.447 | 0.371 | 0.891 | 0.578 | 0.472 | 0.26 | 0.22 | 0.938 | 0.96 | 1.04 | 0.647 | 0.432 | 0.659 | 0.631 | 0.558 | 0.453 | 0.386
7 | NCI-H2405 | 1.04 | 1.03 | 1 | 0.675 | 0.217 | 0.741 | 0.525 | 0.23 | 0.153 | 0.143 | 1.04 | 0.784 | 0.193 | 0.203 | 0.138 | 0.714 | 0.675 | 0.424 | 0.242 | 0.189
8 | NCI-H3122 | 0.926 | 0.954 | 0.506 | 0.488 | 0.177 | 0.93 | 0.873 | 0.214 | 0.161 | 0.108 | 1 | 0.931 | 0.542 | 0.293 | 0.218 | 0.487 | 0.413 | 0.426 | 0.235 | 0.118
9 | PC-3 [JPC-3] | 0.824 | 0.848 | 0.814 |  | 0.707 | 0.776 | 0.8 | 0.888 | 0.541 | 0.59 | 0.486 | 0.442 | 0.444 |  | 0.472 | 0.829 | 0.816 | 0.911 | 0.451 | 0.658
10 | PC-14 | 0.915 | 0.822 | 0.808 | 0.12 | 0.101 | 0.288 | 0.293 | 0.144 | 0.0832 | 0.129 | 0.315 | 0.304 | 0.311 | 0.156 | 0.113 | 0.183 | 0.199 | 0.097 | 0.103 | 0.0891
11 | RERF-LC-KJ | 1.17 | 1.17 | 0.888 | 0.288 | 0.303 | 1 | 1.16 | 0.859 | 0.229 | 0.118 | 0.957 | 0.901 | 1.04 | 0.508 | 0.297 | 0.66 | 0.447 | 0.225 | 0.27 | 0.202
